ChEMBL document CHEMBL1157604 (J Med Chem, 2010)
Calls of active or inactive are those of the source. The rule behind the calls is not given here.

Experiments:
Mus musculus [1] = species: Mus musculus; test: Antinociceptive activity in ICR mouse assessed as inhibition of nicotine-induced response by hotplate test; type: functional
[2] = target: Sodium-dependent noradrenaline transporter (Homo sapiens, UniProt P23975); test: Inhibition of [3H]norepinephrine uptake at human NET expressed in HEK293 cells; type: cell-based
[3] = target: Sodium-dependent serotonin transporter (Homo sapiens, UniProt P31645); test: Inhibition of [3H]serotonin uptake at human SERT expressed in HEK293 cells; type: cell-based
Mus musculus [4] = species: Mus musculus; test: Effect on behavioral activity in ICR mouse assessed as inhibition of nicotine-induced locomotory response by locomotor assay; type: functional
[5] = target: Neuronal acetylcholine receptor; alpha4/beta4 (Homo sapiens) (UniProt P30926+P43681); test: Intrinsic activity at human alpha4beta4 nAChR receptor expressed in human SH-SY5Y cells assessed as 86Rb+ efflux at 5 to 100 uM by liquid scintillation counting; type: cell-based
Mus musculus [6] = species: Mus musculus; test: Effect on body temperature in ICR mouse assessed as inhibition of nicotine-induced hypothermic response; type: functional
[7] = target: Neuronal acetylcholine receptor; alpha3/beta4 (Homo sapiens) (UniProt P30926+P32297); test: Intrinsic activity at alpha3beta4 nAChR receptor in human SH-SY5Y cells assessed as 86Rb+ efflux at 5 to 100 uM by liquid scintillation counting; type: cell-based
[8] = target: Sodium-dependent dopamine transporter (Homo sapiens, UniProt Q01959); test: Inhibition of [3H]dopamine uptake at human DAT expressed in HEK293 cells; type: cell-based
[9] = target: Neuronal acetylcholine receptor; alpha4/beta2 (Homo sapiens) (UniProt P17787+P43681); test: Intrinsic activity at human alpha4beta2 nAChR receptor expressed in human SH-SY5Y cells assessed as 86Rb+ efflux at 5 to 100 uM by liquid scintillation counting; type: cell-based
[10] = target: Acetylcholine receptor; alpha1/beta1/delta/gamma (Homo sapiens) (UniProt P02708+P07510+P11230+Q07001); test: Intrinsic activity at alpha-1-beta-1-gamma-delta nAChR receptor expressed in human TE671/RD cells assessed as 86Rb+ efflux at 5 to 100 uM by liquid scintillation counting; type: cell-based
Mus musculus [11] = species: Mus musculus; test: Antinociceptive activity in ICR mouse D'Amour and Smith model of pain assessed as inhibition of nicotine-induced response by tail-flick test; type: functional

Sequence of Sodium-dependent dopamine transporter (Q01959 whole entry): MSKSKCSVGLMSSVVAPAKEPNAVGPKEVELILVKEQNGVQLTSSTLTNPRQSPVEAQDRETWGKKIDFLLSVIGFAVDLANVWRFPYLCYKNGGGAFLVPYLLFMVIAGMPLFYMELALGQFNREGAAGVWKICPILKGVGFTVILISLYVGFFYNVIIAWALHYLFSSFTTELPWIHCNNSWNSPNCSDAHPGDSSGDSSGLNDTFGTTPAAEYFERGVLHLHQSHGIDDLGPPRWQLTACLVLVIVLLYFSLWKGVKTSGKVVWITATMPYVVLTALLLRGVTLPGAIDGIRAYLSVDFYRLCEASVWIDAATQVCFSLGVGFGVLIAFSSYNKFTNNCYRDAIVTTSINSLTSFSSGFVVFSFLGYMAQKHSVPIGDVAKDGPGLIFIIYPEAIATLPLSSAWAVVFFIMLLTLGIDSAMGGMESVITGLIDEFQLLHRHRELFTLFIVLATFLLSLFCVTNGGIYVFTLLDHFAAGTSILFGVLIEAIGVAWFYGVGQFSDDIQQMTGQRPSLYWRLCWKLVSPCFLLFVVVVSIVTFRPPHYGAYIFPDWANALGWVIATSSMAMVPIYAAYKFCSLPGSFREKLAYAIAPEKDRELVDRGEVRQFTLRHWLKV
Sequence of Sodium-dependent serotonin transporter (P31645 whole entry): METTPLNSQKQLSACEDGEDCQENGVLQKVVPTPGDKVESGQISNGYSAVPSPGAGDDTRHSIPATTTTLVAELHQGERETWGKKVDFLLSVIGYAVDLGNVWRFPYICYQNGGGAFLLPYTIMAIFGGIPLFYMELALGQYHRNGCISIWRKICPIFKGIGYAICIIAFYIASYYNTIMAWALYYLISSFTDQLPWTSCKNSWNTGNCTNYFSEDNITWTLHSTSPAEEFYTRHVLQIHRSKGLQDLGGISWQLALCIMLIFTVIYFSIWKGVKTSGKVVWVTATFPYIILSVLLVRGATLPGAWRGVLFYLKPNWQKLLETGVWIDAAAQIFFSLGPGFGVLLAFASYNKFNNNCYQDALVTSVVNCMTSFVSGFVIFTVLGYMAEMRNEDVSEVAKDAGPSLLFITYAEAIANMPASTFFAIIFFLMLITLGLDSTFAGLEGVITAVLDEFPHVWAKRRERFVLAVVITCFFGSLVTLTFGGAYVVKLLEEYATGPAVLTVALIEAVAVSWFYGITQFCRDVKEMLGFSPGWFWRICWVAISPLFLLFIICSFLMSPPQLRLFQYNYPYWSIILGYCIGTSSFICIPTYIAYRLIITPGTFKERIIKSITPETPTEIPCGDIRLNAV
Sequence of Sodium-dependent noradrenaline transporter (P23975 whole entry): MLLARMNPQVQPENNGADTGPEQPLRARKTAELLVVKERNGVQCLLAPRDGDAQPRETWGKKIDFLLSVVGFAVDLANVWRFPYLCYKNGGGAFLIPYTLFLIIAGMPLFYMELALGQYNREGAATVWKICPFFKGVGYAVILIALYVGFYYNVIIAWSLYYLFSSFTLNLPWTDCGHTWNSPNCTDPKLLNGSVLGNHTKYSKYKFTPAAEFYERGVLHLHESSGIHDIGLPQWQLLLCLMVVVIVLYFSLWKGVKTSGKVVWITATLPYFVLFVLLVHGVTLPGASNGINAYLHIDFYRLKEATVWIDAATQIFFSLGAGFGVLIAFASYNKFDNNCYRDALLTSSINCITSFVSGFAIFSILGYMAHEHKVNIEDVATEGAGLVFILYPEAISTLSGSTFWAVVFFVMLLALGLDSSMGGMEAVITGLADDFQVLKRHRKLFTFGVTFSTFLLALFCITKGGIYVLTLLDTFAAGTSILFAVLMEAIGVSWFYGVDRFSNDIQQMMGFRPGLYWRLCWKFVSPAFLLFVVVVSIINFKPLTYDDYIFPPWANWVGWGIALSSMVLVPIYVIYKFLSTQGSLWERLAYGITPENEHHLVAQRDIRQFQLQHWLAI

In the case of `CC(NC(C)(C)C)C(=O)c1ccc(Cl)c(Cl)c1` (centres undefined), the AD50 (Mus musculus [1]) is reported as “inactive”, the IC50 [2] is reported as 1670 nM and the IC50 [3] is reported as 8800 nM. For the same compound, the AD50 (Mus musculus [4]) was “inactive”, the Activity [5] was “inactive” and the AD50 (Mus musculus [6]) was “inactive”. For the same compound, the Activity [7] was “inactive”, the IC50 [8] was 463 nM and the Activity [9] was “inactive”. For the same compound, the Activity [10] was “inactive” and the AD50 (Mus musculus [11]) was 0.28 mg/kg.
For `COc1cccc(C(=O)C(C)NC2CCCC2)c1` (centres undefined), the AD50 (Mus musculus [1]) was “inactive”, the IC50 [2] was 8200 nM and the IC50 [3] was 6900 nM. The AD50 (Mus musculus [4]) was “inactive”, the Activity [5] was “inactive” and the AD50 (Mus musculus [6]) was “inactive”. The Activity [7] was “inactive”, the IC50 [8] was 2270 nM and the Activity [9] was “inactive”. The Activity [10] was “inactive” and the AD50 (Mus musculus [11]) was “inactive”.
For `CCC(NC(C)(C)C)C(=O)c1ccc(Cl)c(Cl)c1` (centres undefined), the AD50 (Mus musculus [1]) was “inactive”, the IC50 [2] was 389 nM and the IC50 [3] was 1090 nM. The AD50 (Mus musculus [4]) was “inactive”, the Activity [5] was “inactive” and the AD50 (Mus musculus [6]) was “inactive”. The Activity [7] was “inactive”, the IC50 [8] was 118 nM and the Activity [9] was “inactive”. The Activity [10] was “inactive” and the AD50 (Mus musculus [11]) was 0.05 mg/kg.
In the case of `CC(NC(C)(C)C)C(=O)c1ccc(Br)cc1` (centres undefined), the AD50 (Mus musculus [1]) is reported as 23.5 mg/kg, the IC50 [2] is reported as 2540 nM and the IC50 [3] is reported as 4510 nM. For the same compound, the AD50 (Mus musculus [4]) was “inactive”, the Activity [5] was “inactive” and the AD50 (Mus musculus [6]) was 29 mg/kg. The Activity [7] was “inactive”, the IC50 [8] was 689 nM and the Activity [9] was “inactive”. The Activity [10] was “inactive” and the AD50 (Mus musculus [11]) was 0.15 mg/kg.
